Results published in PMC9186412, “Rational Framework for the Design of Trp- and Arg-Rich Peptide Antibiotics Against Multidrug-Resistant Bacteria” (Frontiers in Microbiology, 2022).
Like-named read-outs stand apart in the source and are kept apart here. Where no end group is shown, it is not given here.

What was measured:
A. baumannii = test: microbe, parasite or virus in culture; type: cell-based, Acinetobacter baumannii; details: 18 h
Procedure: (§1) Bacterial clinical isolates, used for initial screening and in previous studies ([Deslouches et al., 2013]; [Lin et al., 2018]), were anonymously provided by the clinical microbiology laboratory of the University of Pittsburgh medical Center. The panel used for secondary screening was from [CDC (2013)] (Supplementary Table 3), with resistance profiles data. Bacteria are stored in lock-secured –80°C freezer and typically retrieved by obtaining single colonies on agar plates prior for subsequent liquid broth cultures. Suspensions of test bacteria were prepared from log phase of growth by diluting overnight cultures at 1:100 with fresh cation-adjusted MHB (MHB2, Millipore Sigma, United States) and incubating for additional 3–4 h. Bacteria were spun at 3,000 × g for 10 min and the pellet resuspended in test condition media (Millipore Sigma, United States) to determine bacterial turbidity using a Den-1B densitometer (Grant Instruments, United States) at 0.5 McFarland (unit of bacterial density) corresponding to […].
(§2) To examine antibacterial activity, we used minor modifications of a standard growth inhibition assay endorsed by the Clinical and Laboratory Standards Institute (CLSI), as previously described ([Deslouches et al., 2013]). Bacteria were incubated with each of the indicated peptides in MHB2. The bacterial cells were kept in an incubator for 18 h at 37°C, which is linked to a robotic system that feeds a plate reader every hour with one of 8 × 96-well plates. This set-up allows the collection of growth kinetic data at A 570 (absorbance at 570 nm) to examine growth inhibition in real time (BioTek Instruments, United States). […] The assays are typically repeated a second time. If the MIC is different, a third experimental trial is performed to confirm the MIC. To assess bactericidal properties of the peptide, the assay was modified by using 15% fetal bovine serum (FBS, for a more physiologically relevant test condition) mixed with 25% MHB2 and 60% PBS. Bacterial cells (colony forming unit/mL or CFU/mL) were enumerated after incubating treated bacteria for 3 h and plating serially diluted samples on broth agar medium at 37°C overnight. Minimum bactericidal concentration (MBC) was determined as the peptide concentration at which complete bacterial killing was observed. […] Data were analyzed using GraphPad Prism software.

E. coli = test: microbe, parasite or virus in culture; type: cell-based, Escherichia coli
Procedure: as §1, §2

Enterobacter spp = test: microbe, parasite or virus in culture; type: cell-based, Enterobacter spp (aerogenes, cloacae); details: Enterobacter, 18 h, UPMC, MHB2, 18 h, 37°C
Procedure: as §1, §2

K. pneumoniae = test: microbe, parasite or virus in culture; type: cell-based, Klebsiella pneumoniae; details: Klebsiella pneumoniae, 18 h, MHB2, 18 h, 37°C
Procedure: as §1, §2

CDC AR isolates [1] = tested on: CDC AR isolates; parameters: key: S (green), susceptible; I (blue), intermediate; R (red), resistant; details: data provided by the CDC, ref CDC, cited from earlier work
Excerpt: Supplement Table_3.XLSX, sheet "CDC AR isolates profiles" | column: G(-) strains

S. aureus = test: microbe, parasite or virus in culture; type: cell-based; details: Staphylococcus aureus, 18 h, MHB2, 18 h, 37°C
Procedure: as §1, §2

E. Faecium = test: microbe, parasite or virus in culture; type: cell-based, Enterococcus Facium; details: Enterococcus faecium, 18 h, MHB2, 18 h, 37°C
Procedure: as §1, §2

CDC AR isolates [2] = tested on: CDC AR isolates; parameters: key: S (green), susceptible; I (blue), intermediate; R (red), resistant; details: data provided by the CDC, ref CDC, cited from earlier work; remark: listed apart in the source
[3] = Enterobacter cloacae E62, CDC AR isolate
[4] = Enterobacter cloacae E544, CDC AR isolate
[5] = Enterobacter cloacae E545, CDC AR isolate
[6] = Enterobacter cloacae E546, CDC AR isolate
[7] = Escherichia coli EC541, CDC AR isolate
[8] = Escherichia coli EC543, CDC AR isolate
[9] = Escherichia coli EC544, CDC AR isolate
[10] = Escherichia coli EC549, CDC AR isolate
[11] = Klebsiella pneumoniae KP542, CDC AR isolate
[12] = Klebsiella pneumoniae KP548, CDC AR isolate
[13] = Klebsiella pneumoniae KP550, CDC AR isolate
[14] = Klebsiella pneumoniae KP552, CDC AR isolate
[15] = Enterococcus faecium EF500, CDC AR isolate
[16] = Enterococcus faecium EF671, CDC AR isolate
[17] = Enterococcus faecium EF672, CDC AR isolate
[18] = Staphylococcus aureus SA462, CDC AR isolate
[19] = Staphylococcus aureus SA463, CDC AR isolate
[20] = Staphylococcus aureus SA561, CDC AR isolate
[21] = Enterococcus faecium EF673, CDC AR isolate
[22] = Staphylococcus aureus SA461, CDC AR isolate

C[C@@H](O)[C@H]1C(=O)N2C(C(=O)O)=C(S[C@@H]3CN[C@H](C(=O)N(C)C)C3)[C@H](C)[C@H]12 [Meropenem, reference compound]
4 µM: MIC (A. baumannii; Acinetobacter baumannii, strain AB-A2, UPMC clinical strain, MHB2, 18 h, 37°C, A570, confirmed by 2nd or 3rd trial)
8 µM: MIC (A. baumannii; Acinetobacter baumannii, strain AB-F8, UPMC, MHB2, 18 h, 37°C) | MIC (A. baumannii; Acinetobacter baumannii, strain AB-F9, UPMC, MHB2, 18 h, 37°C) | MIC (E. coli; Escherichia coli, 18 h, strain YDC337, UPMC, MHB2, 18 h, 37°C) | MIC (E. coli; Escherichia coli, 18 h, strain YDC748, UPMC, MHB2, 18 h, 37°C)
I: Antibiotic susceptibility profile (CDC AR isolates [1]; [6]) | Antibiotic susceptibility profile (CDC AR isolates [1]; [8]) | Antibiotic susceptibility profile (CDC AR isolates [1]; [11]) | Antibiotic susceptibility profile (CDC AR isolates [1]; Pseudomonas aeruginosa PA232, CDC AR isolate)
2 µM: MIC (K. pneumoniae; strain KPA5 (colistin-resistant), UPMC) | MIC (K. pneumoniae; strain KPB3, UPMC)
1 µM: MIC (E. coli; Escherichia coli, 18 h, strain YDC107, UPMC, MHB2, 18 h, 37°C) | MIC (K. pneumoniae; strain KP43816) | MIC (K. pneumoniae; strain KPC3, UPMC)
16 µM: MIC (Enterobacter spp; strain EA596 (aerogenes)) | MIC (Enterobacter spp; strain EC560 (cloacae))
S: Antibiotic susceptibility profile (CDC AR isolates [1]; [3]) | Antibiotic susceptibility profile (CDC AR isolates [1]; [5]) | Antibiotic susceptibility profile (CDC AR isolates [1]; [7])
0.5 µM: MIC (E. coli; Escherichia coli, 18 h, strain Eco25922, MHB2, 18 h, 37°C)
> 16 µM: MIC (A. baumannii; Acinetobacter baumannii, strain AB-A3, UPMC, MHB2, 18 h, 37°C) | MIC (Enterobacter spp; strain EA518 (aerogenes)) | MIC (Enterobacter spp; strain EC470 (cloacae))
R: Antibiotic susceptibility profile (CDC AR isolates [1]; Acinetobacter baumannii AB273, CDC AR isolate) | Antibiotic susceptibility profile (CDC AR isolates [1]; Acinetobacter baumannii AB274, CDC AR isolate) | Antibiotic susceptibility profile (CDC AR isolates [1]; Acinetobacter baumannii AB275, CDC AR isolate) | Antibiotic susceptibility profile (CDC AR isolates [1]; Acinetobacter baumannii AB276, CDC AR isolate) | Antibiotic susceptibility profile (CDC AR isolates [1]; [4]) | Antibiotic susceptibility profile (CDC AR isolates [1]; [9]) | Antibiotic susceptibility profile (CDC AR isolates [1]; [10]) | Antibiotic susceptibility profile (CDC AR isolates [1]; [12]) | Antibiotic susceptibility profile (CDC AR isolates [1]; [13]) | Antibiotic susceptibility profile (CDC AR isolates [1]; [14]) | Antibiotic susceptibility profile (CDC AR isolates [1]; Pseudomonas aeruginosa PA229, CDC AR isolate) | Antibiotic susceptibility profile (CDC AR isolates [1]; Pseudomonas aeruginosa PA230, CDC AR isolate) | Antibiotic susceptibility profile (CDC AR isolates [1]; Pseudomonas aeruginosa PA231, CDC AR isolate) | Antibiotic susceptibility profile (CDC AR isolates [1]; Pseudomonas aeruginosa PA239, CDC AR isolate)

RRVWRRVRRVWRRVRRWVRRVV [E72]
0.5 µM: MIC (E. coli)

RVWRRVRRVWRRVRRVWRRV [E69]
8 µM: MIC (A. baumannii)

Cc1nnc(SCC2=C(C(=O)O)N3C(=O)[C@@H](NC(=O)Cn4cnnn4)[C@H]3SC2)s1 [Cefazolin, reference compound]
2 µM: MIC (S. aureus; strain SA49775)
16 µM: MIC (S. aureus; strain SA12212, UPMC) | MIC (S. aureus; strain SA18710, UPMC)
8 µM: MIC (S. aureus; strain SA-US300)
> 16 µM: MIC (E. Faecium; strain EF23614, UPMC) | MIC (E. Faecium; strain EF24670, UPMC)
R: Antibiotic susceptibility profile (CDC AR isolates [1]; [3]) | Antibiotic susceptibility profile (CDC AR isolates [1]; [4]) | Antibiotic susceptibility profile (CDC AR isolates [1]; [5]) | Antibiotic susceptibility profile (CDC AR isolates [1]; [6]) | Antibiotic susceptibility profile (CDC AR isolates [1]; [7]) | Antibiotic susceptibility profile (CDC AR isolates [1]; [8]) | Antibiotic susceptibility profile (CDC AR isolates [1]; [9]) | Antibiotic susceptibility profile (CDC AR isolates [1]; [10]) | Antibiotic susceptibility profile (CDC AR isolates [1]; [11]) | Antibiotic susceptibility profile (CDC AR isolates [1]; [12]) | Antibiotic susceptibility profile (CDC AR isolates [1]; [13]) | Antibiotic susceptibility profile (CDC AR isolates [1]; [14])
4 µM: MIC (E. Faecium; strain EF26215, UPMC) | MIC (E. Faecium; strain EF26692, UPMC)

RRWVRWVRRWVRWVRR [E80]
16 µM: MIC (A. baumannii)

Penicillin
S: Antibiotic susceptibility profile (CDC AR isolates [1]; [16]) | Antibiotic susceptibility profile (CDC AR isolates [1]; [17]) | Antibiotic susceptibility profile (CDC AR isolates [2]; [21]) | Antibiotic susceptibility profile (CDC AR isolates [2]; [22])
R: Antibiotic susceptibility profile (CDC AR isolates [1]; [15]) | Antibiotic susceptibility profile (CDC AR isolates [1]; [18]) | Antibiotic susceptibility profile (CDC AR isolates [1]; [19]) | Antibiotic susceptibility profile (CDC AR isolates [1]; [20])

CC(=O)NC[C@H]1CN(c2ccc(N3CCOCC3)c(F)c2)C(=O)O1 [Linezolid]
S: Antibiotic susceptibility profile (CDC AR isolates [1]; [15]) | Antibiotic susceptibility profile (CDC AR isolates [1]; [16]) | Antibiotic susceptibility profile (CDC AR isolates [1]; [17]) | Antibiotic susceptibility profile (CDC AR isolates [1]; [18]) | Antibiotic susceptibility profile (CDC AR isolates [1]; [19]) | Antibiotic susceptibility profile (CDC AR isolates [1]; [20]) | Antibiotic susceptibility profile (CDC AR isolates [2]; [21]) | Antibiotic susceptibility profile (CDC AR isolates [2]; [22])

CCC[C@@H]1C[C@@H](C(=O)N[C@@H]([C@H]2O[C@H](SC)[C@H](O)[C@@H](O)[C@H]2O)[C@H](C)Cl)N(C)C1 [Clindamycin]
S: Antibiotic susceptibility profile (CDC AR isolates [1]; [18]) | Antibiotic susceptibility profile (CDC AR isolates [1]; [19]) | Antibiotic susceptibility profile (CDC AR isolates [1]; [20])
R: Antibiotic susceptibility profile (CDC AR isolates [2]; [22])

CO[C@@]1(NC(=O)Cc2cccs2)C(=O)N2C(C(=O)O)=C(COC(N)=O)CS[C@@H]21 [Cefoxitin]
S: Antibiotic susceptibility profile (CDC AR isolates [1]; [7])
R: Antibiotic susceptibility profile (CDC AR isolates [1]; [3]) | Antibiotic susceptibility profile (CDC AR isolates [1]; [4]) | Antibiotic susceptibility profile (CDC AR isolates [1]; [5]) | Antibiotic susceptibility profile (CDC AR isolates [1]; [6]) | Antibiotic susceptibility profile (CDC AR isolates [1]; [8]) | Antibiotic susceptibility profile (CDC AR isolates [1]; [9]) | Antibiotic susceptibility profile (CDC AR isolates [1]; [10]) | Antibiotic susceptibility profile (CDC AR isolates [1]; [11]) | Antibiotic susceptibility profile (CDC AR isolates [1]; [12]) | Antibiotic susceptibility profile (CDC AR isolates [1]; [13]) | Antibiotic susceptibility profile (CDC AR isolates [1]; [14]) | Antibiotic susceptibility profile (CDC AR isolates [1]; [18]) | Antibiotic susceptibility profile (CDC AR isolates [1]; [19]) | Antibiotic susceptibility profile (CDC AR isolates [1]; [20]) | Antibiotic susceptibility profile (CDC AR isolates [2]; [22])

Nc1nc(-n2cc(C(=O)O)c(=O)c3cc(F)c(N4CC(O)C4)c(Cl)c32)c(F)cc1F [Delafloxacin]
S: Antibiotic susceptibility profile (CDC AR isolates [1]; [16]) | Antibiotic susceptibility profile (CDC AR isolates [1]; [17]) | Antibiotic susceptibility profile (CDC AR isolates [2]; [21])

RRVWRRVRRVWRRVRRVVRRVW [E71]
8 µM: MIC (A. baumannii)
